Results from paper PMC5609601 (Brazilian Journal of Medical and Biological Research, 2017).
“Also recorded” adds a separate entry of the source. Like-named read-outs stand apart in the source and are kept apart here.

Experiments:
[1] = Stability of curcumin constituents; type: physicochemical, rat; conditions: for Concentration in blank intestinal perfusion fluid: 37.5±0.5°C, drug-containing SEDDS; for Stability in pH 6.8 K-R blank intestinal perfusion fluid: within 8 h, curcumin SEDDS
rat small intestines [2] = test: In situ single pass intestinal perfusion: absorption site and drug concentration; type: in vivo; conditions: for Comparison of absorption among intestinal segments / Concentration dependence of absorption: duodenum; for Comparison of absorption among intestinal segments: jejunum, ileum, colon; for Comparison of absorption among intestinal segments / Main intestinal absorption site: higher concentration group; for Concentration dependence of absorption: low, medium, high, higher concentrations; for Main intestinal absorption site: different intestinal segments; for Transport (absorption) mechanism: rat small intestine
MRP2 = MRP2 (Rattus norvegicus, UniProt Q63120); type: in vivo; conditions: for Substrate of MRP2: inferred from probenecid effect
Chain of MRP2 (Q63120 whole entry): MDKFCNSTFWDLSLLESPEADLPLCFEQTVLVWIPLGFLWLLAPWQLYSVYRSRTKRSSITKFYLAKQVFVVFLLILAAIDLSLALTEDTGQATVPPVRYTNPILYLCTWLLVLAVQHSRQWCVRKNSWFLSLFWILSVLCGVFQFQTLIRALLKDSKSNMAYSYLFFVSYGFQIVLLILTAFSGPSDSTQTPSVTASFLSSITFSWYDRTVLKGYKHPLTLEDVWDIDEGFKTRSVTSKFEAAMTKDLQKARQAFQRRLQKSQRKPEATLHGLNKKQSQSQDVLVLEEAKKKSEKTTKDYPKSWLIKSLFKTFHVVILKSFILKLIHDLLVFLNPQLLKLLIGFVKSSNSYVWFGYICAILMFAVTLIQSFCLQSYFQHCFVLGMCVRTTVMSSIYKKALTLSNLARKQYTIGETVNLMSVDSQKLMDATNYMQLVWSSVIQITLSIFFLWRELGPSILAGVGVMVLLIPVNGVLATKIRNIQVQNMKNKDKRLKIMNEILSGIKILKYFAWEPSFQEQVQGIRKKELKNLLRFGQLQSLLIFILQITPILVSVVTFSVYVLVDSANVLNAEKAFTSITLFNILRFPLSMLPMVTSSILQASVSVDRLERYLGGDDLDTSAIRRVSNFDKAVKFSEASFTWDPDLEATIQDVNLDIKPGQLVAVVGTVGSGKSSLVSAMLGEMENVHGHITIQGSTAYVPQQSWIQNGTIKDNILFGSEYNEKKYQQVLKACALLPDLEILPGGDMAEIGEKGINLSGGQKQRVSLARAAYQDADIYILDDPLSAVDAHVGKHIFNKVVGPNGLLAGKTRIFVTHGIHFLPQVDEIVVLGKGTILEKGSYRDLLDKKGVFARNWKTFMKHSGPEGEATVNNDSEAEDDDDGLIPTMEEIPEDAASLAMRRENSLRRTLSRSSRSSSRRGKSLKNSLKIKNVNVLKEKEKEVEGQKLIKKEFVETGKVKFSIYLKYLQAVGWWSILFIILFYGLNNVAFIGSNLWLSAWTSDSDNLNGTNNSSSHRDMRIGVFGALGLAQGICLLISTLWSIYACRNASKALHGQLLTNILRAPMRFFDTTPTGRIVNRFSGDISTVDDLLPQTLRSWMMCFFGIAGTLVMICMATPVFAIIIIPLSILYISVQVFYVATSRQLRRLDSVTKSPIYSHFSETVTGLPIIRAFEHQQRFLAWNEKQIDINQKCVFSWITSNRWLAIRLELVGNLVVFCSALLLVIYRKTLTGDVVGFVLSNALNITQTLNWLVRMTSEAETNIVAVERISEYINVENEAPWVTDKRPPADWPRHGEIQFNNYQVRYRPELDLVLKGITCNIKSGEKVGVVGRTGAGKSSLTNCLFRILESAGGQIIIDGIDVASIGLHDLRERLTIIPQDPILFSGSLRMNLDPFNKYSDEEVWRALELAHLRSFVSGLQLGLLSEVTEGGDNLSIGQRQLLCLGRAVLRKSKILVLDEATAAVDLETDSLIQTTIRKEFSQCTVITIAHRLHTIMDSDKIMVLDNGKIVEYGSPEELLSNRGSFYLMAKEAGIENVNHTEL

rat small intestines [3] = type: in vivo; conditions: duodenum; for Influence of 2,4-dinitrophenol on Ka / Influence of 2,4-dinitrophenol on Papp / Influence of 2,4-dinitrophenol on A%: compared with the group without inhibitor; for Influence of 2,4-dinitrophenol on A%: 1.0, 2.0, 5.0 mmol/L
P-gp = type: in vivo, rat; conditions: for Influence of verapamil hydrochloride on absorption / Influence of verapamil hydrochloride on Ka / Influence of verapamil hydrochloride on Papp / Influence of verapamil hydrochloride on A%: ileum; for Influence of verapamil hydrochloride on Ka / Influence of verapamil hydrochloride on Papp: high-concentration inhibitor; for Substrate of P-glycoprotein: inferred from verapamil hydrochloride effect
[4] = Adsorption of the constituents by the intestinal wall; type: in vitro ADME, rat; conditions: for Absorption in the intestinal wall: curcumin SEDDS; for Concentration in incubation solution with intestinal wall: 37.5±0.5°C
[5] = jejunum, high-concentration probenecid
[6] = jejunum, probenecid 0.02, 0.04, 0.08 mmol/L

Row | SMILES | Concentration in blank intestinal perfusion fluid ([1]; time 0 h) [µg/mL] | Concentration in blank intestinal perfusion fluid ([1]; time 1 h) [µg/mL] | Concentration in blank intestinal perfusion fluid ([1]; time 2 h) [µg/mL] | Concentration in blank intestinal perfusion fluid ([1]; time 4 h) [µg/mL] | Concentration in blank intestinal perfusion fluid ([1]; time 8 h) [µg/mL] | Stability in pH 6.8 K-R blank intestinal perfusion fluid [1] | Comparison of absorption among intestinal segments (rat small intestines [2]) | Concentration dependence of absorption (rat small intestines [2]) | Main intestinal absorption site (rat small intestines [2]) | Absorption in duodenum compared to colon (rat small intestines [2]; one-way ANOVA) | Transport (absorption) mechanism (rat small intestines [2]) | Substrate of MRP2 (MRP2) | Influence of probenecid on Papp (MRP2; [5]) | Influence of probenecid on A% (MRP2; [6]) | Influence of verapamil hydrochloride on Papp (P-gp) | Concentration in incubation solution with intestinal wall ([4]; time 0 min) [µg/mL] | Concentration in incubation solution with intestinal wall ([4]; time 30 min) [µg/mL] | Concentration in incubation solution with intestinal wall ([4]; time 60 min) [µg/mL] | Concentration in incubation solution with intestinal wall ([4]; time 90 min) [µg/mL] | Concentration in incubation solution with intestinal wall ([4]; time 120 min) [µg/mL] | further results
1 | O=C(/C=C/c1ccc(O)cc1)CC(=O)/C=C/c1ccc(O)cc1 [BDMCur, bisdemethoxycurcumin] | 26 | 26 | 26 | 26 | 25 | stable | not significantly different (P>0.05); also recorded: better in the duodenum and relatively poorer in the ileum | concentration inhibiting effect | duodenum | increased (P<0.01) in an extremely significant manner | active transport in the carrier-mediated transport | may be the substrates | significantly increased | significantly increased | significantly accelerated | 27.300 | 27.288 | 27.247 | 27.173 | 26.253 | Change of A% when probenecid concentration was further increased (MRP2; jejunum, above medium concentration): barely changed; Influence of probenecid on Ka (MRP2; [5]): significantly increased; Influence of probenecid on A% (MRP2; jejunum, medium-concentration probenecid): significantly increased; Energy dependence of intestinal absorption process (rat small intestines [3]): energy-dependent action; Influence of 2,4-dinitrophenol on Ka (rat small intestines [3]): decreased significantly (P<0.05); Influence of 2,4-dinitrophenol on Papp (rat small intestines [3]): decreased significantly (P<0.05); Influence of 2,4-dinitrophenol on A% (rat small intestines [3]): decreased in an extremely significant manner (P<0.01); Influence of verapamil hydrochloride on absorption (P-gp): significantly improve the absorption; Influence of verapamil hydrochloride on Ka (P-gp): significantly accelerated; Influence of verapamil hydrochloride on A% (P-gp; verapamil hydrochloride 0.05, 0.1, 0.5 mmol/L): almost no influence; Substrate of P-glycoprotein (P-gp): may be the substrates; Absorption in the intestinal wall [4]: no obvious absorption
2 | COc1cc(/C=C/C(O)=C/C(=O)/C=C/c2ccc(O)cc2)ccc1O [DMCur, demethoxycurcumin] | 159 | 158 | 157 | 156 | 154 | stable | duodenum > colon ≈ jejunum > ileum; also recorded: better in the duodenum and relatively poorer in the ileum | saturation phenomenon | duodenum | increased significantly (P<0.05) | active transport in the carrier-mediated transport | may be the substrates | significantly increased | significantly increased | significantly accelerated | 166.950 | 165.354 | 164.023 | 163.724 | 162.104 | Absorption in duodenum compared with ileum (rat small intestines [2]; one-way ANOVA): increased (P<0.01) in an extremely significant manner; Absorption in jejunum compared with ileum (rat small intestines [2]; one-way ANOVA): increased significantly (P<0.05); Change of A% with probenecid concentration (MRP2; jejunum): increased with the increase in probenecid concentration; Change of Ka with probenecid concentration (MRP2; jejunum): increased with the increase in probenecid concentration; Energy dependence of intestinal absorption process (rat small intestines [3]): energy-dependent action; Influence of 2,4-dinitrophenol on Ka (rat small intestines [3]): decreased significantly (P<0.05); Influence of 2,4-dinitrophenol on Papp (rat small intestines [3]): decreased significantly (P<0.05); Influence of 2,4-dinitrophenol on A% (rat small intestines [3]): decreased in an extremely significant manner (P<0.01); Influence of verapamil hydrochloride on absorption (P-gp): significantly improve the absorption; Influence of verapamil hydrochloride on Ka (P-gp): significantly accelerated; Influence of verapamil hydrochloride on A% (P-gp; medium-concentration and high-concentration inhibitor): significant increase; Substrate of P-glycoprotein (P-gp): may be the substrates; Absorption in the intestinal wall [4]: no obvious absorption
3 | COc1cc(/C=C/C(=O)CC(=O)/C=C/c2ccc(O)c(OC)c2)ccc1O [Cur, curcumin] | 685 | 684 | 682 | 678 | 668 | stable |  | concentration inhibiting effect |  |  |  |  | significantly increased |  | significantly accelerated | 719.250 | 717.346 | 716.858 | 716.019 | 701.751 | Change of A% with probenecid concentration (MRP2; jejunum): increased with the increase in probenecid concentration; Change of Ka with probenecid concentration (MRP2; jejunum): increased with the increase in probenecid concentration
